Experimental data as given in ChEMBL document CHEMBL1201862, “PubChem BioAssay data set” (2004).
Several values for one entry are separate records, joined by “and”; a condition that tells them apart may be missing. Identical values can stand only once. Counter-ions that a name gives are not always drawn. Activity calls are given as the source filed them.

Legend:
[1] = target: Paired box protein Pax-8 (Homo sapiens, UniProt Q06710); experiment: PAX8 transcriptional activity inhibition in RMG-I – RMG-I cells, luciferase, cherry-pick, dose response (AID 687027); type: functional, cell-based;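 further: luciferase reporter driven by Pax8 target thyroperoxidase promoter measured by SteadyGlo luminescence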
[2] = target: Cytochrome P450 2C19 (Homo sapiens, UniProt P33261); experiment: Cytochrome panel assay with activity outcomes. Panel member name: p450-cyp2c19 Compounds with AC50 equal or less than 10 uM are considered active; type: functional
[3] = test system: H4; experiment: Luminescence Cell-Based Dose Response HTS to Identify Activators of 5'UTR Stem-Loop Driven Prion Protein mRNA Translation in H4 Neuroglioblastoma Cells. [Related pubchem assays: 1829 (Project Summary), 1814 (Primary HTS)]; type: functional; settings: Homo sapiens
[4] = Luminescence Cell-Based Dose Confirmation HTS to Identify Activators of 5'UTR Stem-Loop Driven Alpha-Synuclein mRNA Translation in H4 Neuroglioblastoma Cells. [Related pubchem assays: 1829 (Project Summary), 1814 (Primary HTS)]; type: functional
[5] = Luminescence Cell-Based Dose Response HTS to Identify Activators of Luciferase Translation or Activity in H4 […] Cells. [Related pubchem assays: 1829 (Project Summary), 1814 (Primary HTS)]; type: functional
[6] = target: T1, Heat shock factor protein 1 (Mus musculus, UniProt P38532); experiment: enhancement of HSF1-driven luciferase signal – cell-based, NIH3T3, luminescence, dose retest, confirmation (AID 435004); type: functional;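 further: stress induced by proteasome inhibitor MG132 added 30 min after compound; luciferase reporter driven by HSF1 response element in NIH3T3 cells; actives raise luminescence as potentiators of the MG132 stress response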
T1 sequence (P38532 whole entry): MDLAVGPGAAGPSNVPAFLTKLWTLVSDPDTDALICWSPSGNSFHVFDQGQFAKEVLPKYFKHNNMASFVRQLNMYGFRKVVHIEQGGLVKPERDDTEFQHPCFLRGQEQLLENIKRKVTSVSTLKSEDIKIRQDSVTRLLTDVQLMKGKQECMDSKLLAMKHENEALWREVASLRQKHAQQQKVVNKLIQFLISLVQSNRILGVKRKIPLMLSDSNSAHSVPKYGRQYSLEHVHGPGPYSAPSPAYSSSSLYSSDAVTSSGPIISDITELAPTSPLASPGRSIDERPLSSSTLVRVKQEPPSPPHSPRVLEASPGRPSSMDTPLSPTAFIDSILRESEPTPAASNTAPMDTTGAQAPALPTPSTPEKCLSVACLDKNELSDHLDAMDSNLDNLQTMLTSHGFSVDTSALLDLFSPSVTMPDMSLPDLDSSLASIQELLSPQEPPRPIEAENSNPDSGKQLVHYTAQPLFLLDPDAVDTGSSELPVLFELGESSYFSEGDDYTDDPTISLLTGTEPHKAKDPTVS

[7] = reduction of Shn3 3'UTR-driven luciferase in osteoblasts – cell-based, Clone20 osteoblasts, firefly luciferase, cherry-picked, dose response (AID 624132); type: functional;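 further: firefly luciferase luminescence from reporter carrying the Shn3 3'UTR in osteoblasts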
[8] = Luminescence Cell-Based Dose Response HTS to Identify Inhibitors of 5'UTR Stem-Loop Driven Prion Protein mRNA Translation in H4 Neuroglioblastoma Cells. [Related pubchem assays: 1827 (Project Summary), 1813 (Primary HTS)]; type: functional
[9] = luciferase reporter signal suppression in cells – H4 neuroglioma cells, luminescence, dose response (AID 1990); type: functional, cell-based
[10] = alpha-synuclein stem-loop luciferase translation blockers – H4 neuroglioma cells, luminescence, confirmation (AID 1988); type: functional, cell-based
[11] = target: Cytochrome P450 3A4 (Homo sapiens, UniProt P08684);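 further: CYP3A4 tested as one member of a cytochrome P450 panel screen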
[12] = target: Cytochrome P450 2C9 (Homo sapiens, UniProt P11712)
[13] = target: T2, Cytochrome P450 1A2 (Homo sapiens, UniProt P05177);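 further: PubChem cytochrome P450 panel assay, CYP1A2 panel member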
T2 sequence (P05177 whole entry): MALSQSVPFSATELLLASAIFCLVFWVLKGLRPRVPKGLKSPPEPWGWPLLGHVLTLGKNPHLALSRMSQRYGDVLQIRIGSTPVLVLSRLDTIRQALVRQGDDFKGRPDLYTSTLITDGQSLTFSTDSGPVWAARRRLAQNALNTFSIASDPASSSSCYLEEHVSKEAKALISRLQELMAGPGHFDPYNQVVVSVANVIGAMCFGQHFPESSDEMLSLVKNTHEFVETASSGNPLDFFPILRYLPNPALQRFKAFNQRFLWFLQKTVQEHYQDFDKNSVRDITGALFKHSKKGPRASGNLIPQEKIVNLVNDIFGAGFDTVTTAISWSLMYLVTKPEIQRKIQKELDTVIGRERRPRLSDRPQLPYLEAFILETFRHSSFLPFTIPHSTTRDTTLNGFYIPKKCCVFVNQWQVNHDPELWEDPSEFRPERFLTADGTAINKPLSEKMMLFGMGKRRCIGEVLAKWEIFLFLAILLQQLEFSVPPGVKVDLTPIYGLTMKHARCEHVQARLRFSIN

[14] = test system: Streptococcus sp. 'group A'; experiment: Streptococcus pyogenes SK(-)GAS viability under kanamycin – luminescence, BacTiterGlo, confirmation, counter-screen for streptokinase expression inhibitor project, dose response (AID 1900); type: functional, organism-based
[15] = target: T3, Streptokinase A (Streptococcus pyogenes serotype M1, UniProt P10520); experiment: viability-normalized secreted streptokinase activity reduction – plasminogen activation absorbance, OD405, dose response (AID 1914); type: functional, Streptococcus pyogenes M1 GAS;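 further: secreted streptokinase activity via plasminogen activation per viability signal from cell pellet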
T3 sequence (P10520 whole entry): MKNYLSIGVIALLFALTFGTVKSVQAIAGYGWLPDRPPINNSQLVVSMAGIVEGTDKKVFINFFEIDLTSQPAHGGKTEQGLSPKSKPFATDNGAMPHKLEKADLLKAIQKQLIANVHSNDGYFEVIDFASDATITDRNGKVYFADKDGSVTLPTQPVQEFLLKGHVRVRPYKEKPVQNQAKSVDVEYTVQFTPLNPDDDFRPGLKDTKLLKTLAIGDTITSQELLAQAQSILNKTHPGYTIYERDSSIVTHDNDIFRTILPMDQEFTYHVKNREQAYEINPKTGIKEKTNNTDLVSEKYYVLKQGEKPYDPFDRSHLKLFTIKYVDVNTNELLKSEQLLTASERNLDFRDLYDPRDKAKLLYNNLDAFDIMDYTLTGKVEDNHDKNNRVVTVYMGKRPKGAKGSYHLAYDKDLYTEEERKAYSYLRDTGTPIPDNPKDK

[16] = test system: Streptococcus; experiment: GAS UMAA2166 growth inhibition – luminescence, BacTiterGlo, counter-screen for streptokinase expression inhibitor project, dose response (AID 1915); type: functional, organism-based;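 further: potency for reduction of bacterial viability or growth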
[17] = target: Cytochrome P450 2D6 (Homo sapiens, UniProt P10635);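 further: CYP2D6 member of a cytochrome P450 panel assay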
Cytochrome P450 2D6, sequence (P10635 whole entry): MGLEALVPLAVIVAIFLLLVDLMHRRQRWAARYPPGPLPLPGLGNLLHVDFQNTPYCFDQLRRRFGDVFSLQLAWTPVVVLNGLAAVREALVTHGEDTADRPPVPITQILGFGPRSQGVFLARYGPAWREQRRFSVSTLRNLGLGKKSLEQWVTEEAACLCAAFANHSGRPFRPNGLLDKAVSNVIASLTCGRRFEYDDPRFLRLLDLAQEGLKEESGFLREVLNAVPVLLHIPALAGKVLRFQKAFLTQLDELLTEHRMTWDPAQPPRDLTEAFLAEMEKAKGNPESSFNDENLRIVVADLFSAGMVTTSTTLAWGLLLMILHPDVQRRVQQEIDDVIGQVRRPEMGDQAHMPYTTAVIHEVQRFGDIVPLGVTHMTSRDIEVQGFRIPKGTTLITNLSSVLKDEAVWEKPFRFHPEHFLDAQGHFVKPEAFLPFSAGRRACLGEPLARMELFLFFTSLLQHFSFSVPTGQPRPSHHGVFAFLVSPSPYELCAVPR

Cytochrome P450 2C9, sequence (P11712 whole entry): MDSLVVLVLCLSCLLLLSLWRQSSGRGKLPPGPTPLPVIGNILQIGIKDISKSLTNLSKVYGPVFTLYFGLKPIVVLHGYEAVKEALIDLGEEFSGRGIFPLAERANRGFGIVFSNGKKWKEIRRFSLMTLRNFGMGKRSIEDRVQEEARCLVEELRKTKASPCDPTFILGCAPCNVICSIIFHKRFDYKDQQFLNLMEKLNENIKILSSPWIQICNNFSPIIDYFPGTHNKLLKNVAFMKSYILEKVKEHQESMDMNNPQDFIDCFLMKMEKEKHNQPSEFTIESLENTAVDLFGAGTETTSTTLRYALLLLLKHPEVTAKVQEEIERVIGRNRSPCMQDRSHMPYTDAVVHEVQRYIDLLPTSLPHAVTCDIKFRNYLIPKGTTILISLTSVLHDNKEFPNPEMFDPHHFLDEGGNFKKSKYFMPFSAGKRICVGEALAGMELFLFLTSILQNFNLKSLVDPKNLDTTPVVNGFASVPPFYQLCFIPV
Cytochrome P450 2C19, sequence (P33261 whole entry): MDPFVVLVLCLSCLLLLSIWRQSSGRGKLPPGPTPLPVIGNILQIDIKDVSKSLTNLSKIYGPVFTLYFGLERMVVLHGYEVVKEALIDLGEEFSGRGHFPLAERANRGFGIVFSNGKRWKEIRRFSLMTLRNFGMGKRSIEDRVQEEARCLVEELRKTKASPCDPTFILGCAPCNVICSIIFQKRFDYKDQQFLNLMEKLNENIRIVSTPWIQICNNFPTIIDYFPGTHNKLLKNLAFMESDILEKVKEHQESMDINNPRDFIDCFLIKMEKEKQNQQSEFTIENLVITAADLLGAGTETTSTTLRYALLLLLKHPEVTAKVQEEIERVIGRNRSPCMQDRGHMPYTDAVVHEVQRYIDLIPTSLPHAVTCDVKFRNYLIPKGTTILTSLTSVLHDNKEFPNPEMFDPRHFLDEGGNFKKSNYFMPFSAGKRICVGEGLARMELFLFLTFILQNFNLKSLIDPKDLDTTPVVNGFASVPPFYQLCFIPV
Cytochrome P450 3A4, sequence (P08684 whole entry): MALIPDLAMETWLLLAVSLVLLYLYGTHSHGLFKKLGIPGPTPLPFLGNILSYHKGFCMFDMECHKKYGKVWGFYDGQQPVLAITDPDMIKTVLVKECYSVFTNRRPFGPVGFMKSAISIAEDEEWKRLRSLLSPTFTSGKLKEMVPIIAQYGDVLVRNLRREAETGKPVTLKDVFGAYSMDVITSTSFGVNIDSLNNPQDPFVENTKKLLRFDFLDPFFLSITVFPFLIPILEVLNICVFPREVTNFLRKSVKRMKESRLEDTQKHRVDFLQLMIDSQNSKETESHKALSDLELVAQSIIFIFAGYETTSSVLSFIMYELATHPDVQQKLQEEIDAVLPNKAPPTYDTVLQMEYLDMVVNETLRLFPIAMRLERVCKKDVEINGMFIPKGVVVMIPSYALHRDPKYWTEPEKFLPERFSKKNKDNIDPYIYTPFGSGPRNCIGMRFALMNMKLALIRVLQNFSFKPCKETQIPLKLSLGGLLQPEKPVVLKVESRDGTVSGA
Paired box protein Pax-8, sequence (Q06710 whole entry): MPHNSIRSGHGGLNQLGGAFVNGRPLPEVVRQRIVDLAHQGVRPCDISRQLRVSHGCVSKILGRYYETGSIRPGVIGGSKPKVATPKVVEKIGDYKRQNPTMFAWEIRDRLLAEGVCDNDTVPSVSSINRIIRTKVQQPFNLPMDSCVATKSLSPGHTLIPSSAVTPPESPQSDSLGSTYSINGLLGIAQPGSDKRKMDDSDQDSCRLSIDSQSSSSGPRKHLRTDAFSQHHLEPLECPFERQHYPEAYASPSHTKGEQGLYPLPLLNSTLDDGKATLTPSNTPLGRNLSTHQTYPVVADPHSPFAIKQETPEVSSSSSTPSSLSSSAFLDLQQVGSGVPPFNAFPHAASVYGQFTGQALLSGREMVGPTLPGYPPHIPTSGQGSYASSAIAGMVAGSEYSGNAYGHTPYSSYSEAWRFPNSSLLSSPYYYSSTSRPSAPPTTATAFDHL

Structure (SMILES): C=CC[C@@H](CC(=O)N[C@H](CO)Cc1ccccc1)C(=O)N[C@H](COC(=O)[C@@H](CC=C)Cc1ccc(F)cc1)Cc1c[nH]c2ccccc12
- AC50 [1]: 8.96 µM (active)

Structure (SMILES): C[C@@H]1OC=C2[C@@H](O)[C@H]3O[C@H]3C(=O)[C@]23[C@@H]2O[C@H](C)C(C4=C2[C@@H](O)[C@H]2O[C@@H]2C4=O)[C@@H]13
- AC50 [2]: inconclusive

Structure (SMILES): COc1ccc(C(=O)C[n+]2ccccc2C=NO)cc1
- EC50 [3]: 32 µM (active)
- EC50 [4]: 12.5 µM (active)
- EC50 [5]: 12.1 µM (active)

Structure (SMILES): COC(=O)c1ccccc1NC(=O)CSc1nc(Nc2ccccc2)nc(N2CCOCC2)n1
- EC50 [6]: > 260 µM (inactive)

Structure (SMILES): CC(C)NCC(O)COc1cccc2ccccc12 (stereo not drawn) [PROPRANOLOL HYDROCHLORIDE]
- AC50 [7]: 23.6 µM (active)

Structure (SMILES): O=C(NCCc1cccs1)C1CC(c2ccc([N+](=O)[O-])cc2)=NO1 (stereo not drawn)
- EC50 [3]: 16.2 µM (active)
- EC50 [4]: 118 µM (active)
- EC50 [5]: 50.8 µM (active)

Structure (SMILES): FC(F)(F)c1c[nH]c2c(-c3ccccc3)nnc-2c1
- EC50 [3]: 13.9 µM (active)
- EC50 [4]: 1.29 µM (active)
- EC50 [5]: 19.3 µM (active)

Structure (SMILES): CCOC(=O)COc1ccc(/C=C2/S/C(=N/c3ccccc3)N(Cc3cccnc3)C2=O)cc1OC
- EC50 [6]: 31.7 µM (active)

Structure (SMILES): COC(=O)C1=C(C)n2nnnc2NC1c1ccc(Cl)cc1 (stereo not drawn)
- EC50 [8]: > 120 µM (not active)
- EC50 [9]: 20.6 µM (active)
- EC50 [10]: > 120 µM (not active)

Structure (SMILES): CCc1ccc(NC(=O)c2[nH]c(C)c(C(C)=O)c2C)cc1
- EC50 [4]: 1.62 µM (active)
- EC50 [5]: 2.6 µM (active)

Structure (SMILES): CCSc1nnc(-c2c[nH]c3ccccc23)o1
- EC50 [3]: 24.7 µM (inconclusive)
- EC50 [4]: 63.9 µM (active)
- EC50 [5]: 21.1 µM (active)

Structure (SMILES): Cc1nc2cncnc2n(Cc2ccc(F)cc2)c1=O
- AC50 [11]: 15.8 µM (inconclusive)
- AC50 ([2]; read-out: AC50): 39.8 µM (inconclusive)
- AC50 [12]: 25.1 µM (inconclusive)

Structure (SMILES): Cc1ccc(NC(=NOCc2ccc(Cl)cc2Cl)c2nonc2N)c(C)c1
- EC50 [6]: > 260 µM (inactive)

Structure (SMILES): OCCN1CCN(c2nc(N3CCCCC3)nc(N3CCCCC3)n2)CC1
- AC50 [11]: 14.1 µM (inconclusive)
- AC50 ([2]; read-out: AC50): 39.8 µM (inconclusive)
- AC50 [12]: 15.8 µM (inconclusive)

Structure (SMILES): COc1cc(NC(=O)c2cc3c(Cl)nc4ccccc4c3s2)cc(OC)c1OC
- AC50 [7]: 24.4 µM (active)

Structure (SMILES): CC1=Nc2ccccc2/C1=C/c1nc(-c2ccc(C)s2)oc1O
- EC50 [6]: 21.4 µM (active)

Structure (SMILES): O=c1c2ccccc2nnn1CSc1ncnc2ccccc12
- EC50 [6]: 10.7 µM (active)

Structure (SMILES): N[C@H](C(=O)O)c1cc(O)cc(O)c1
- AC50 [13]: 31.6 µM (inconclusive)
- AC50 ([2]; read-out: AC50): 15.8 µM (inconclusive) and 10 µM (inconclusive)

Structure (SMILES): Cc1ccc(S(=O)(=O)N/N=C/c2cccn2-c2ccc(Cl)cc2)cc1
- AC50 [13]: 12.6 µM (inconclusive)
- AC50 ([2]; read-out: AC50): 0.0501 µM (inconclusive)
- AC50 [12]: 12.6 µM (inconclusive)

Structure (SMILES): Nc1c(Cl)cc(C2=NCCn3c2c2ccc([N+](=O)[O-])cc2[n+]3[O-])cc1Cl
- EC50 [8]: > 120 µM (not active)
- EC50 [14]: 2 µM (active)
- EC50 [9]: 14.7 µM (active)
- EC50 [15]: > 150 µM (not active)
- EC50 [16]: 5.67 µM (active)
- EC50 [10]: 8.15 µM (active)

Structure (SMILES): O=C(NCC1CCCO1)C1CCC(=O)N1CCc1ccccc1 (stereo not drawn)
- AC50 ([2]; read-out: AC50): 7.08 µM (inconclusive)

Structure (SMILES): C[C@H](NC(=O)[C@@H]1CSC2c3ccccc3C(=O)N21)C(=O)NCCc1ccccc1 (stereo partly drawn)
- EC50 [6]: 248 µM (active)

Structure (SMILES): CCn1cnc2c1c(=O)n(Cc1nnc3n1-c1ccccc1SC3)c(=O)n2Cc1ccccc1
- EC50 [6]: > 260 µM (inactive)

Structure (SMILES): COc1nccc(-c2c(-c3ccc(F)cc3)ncn2C2CCC(O)CC2)n1 (stereo not drawn)
- AC50 [17]: 12.6 µM (inconclusive)
- AC50 [13]: 31.6 µM (inconclusive)
- AC50 ([2]; read-out: AC50): 7.94 µM (inconclusive)
- AC50 [12]: 7.94 µM (inconclusive)

Structure (SMILES): C=CCNC(=S)N/N=C/c1ccc(-c2ccc(Br)cc2)o1
- EC50 [6]: 134 µM (active)

Structure (SMILES): O=C(CC(c1ccco1)S(=O)(=O)c1ccccc1)c1ccc(F)cc1 (stereo not drawn)
- EC50 [6]: > 260 µM (inactive)

Structure (SMILES): COc1ccc(/C=N/NC(=O)c2ccco2)cc1Cn1nc(C)c([N+](=O)[O-])c1C
- EC50 [8]: > 120 µM (not active)
- EC50 [9]: > 120 µM (not active)
- EC50 [10]: > 120 µM (not active)

Structure (SMILES): Cc1ccc(C)c(Nc2c([N+](=O)[O-])ccc3nonc23)c1
- EC50 [8]: > 120 µM (not active)
- EC50 [9]: 19.9 µM (active)
- EC50 [10]: 53.7 µM (active)

Structure (SMILES): Cn1c2ccc(F)cc2c2ncn(CCN3CCOCC3)c(=O)c21
- EC50 [6]: > 260 µM (inactive)

Structure (SMILES): CC(=O)OC(C)(C)/C=C/C(=O)[C@](C)(O)C1[C@H](O)C[C@@]2(C)C3CC=C4C(C=C(O[C@@H]5O[C@H](CO)[C@@H](O)[C@H](O)[C@H]5O)C(=O)C4(C)C)[C@]3(C)C(=O)C[C@]12C (stereo partly drawn)
- AC50 [1]: 7.14 µM (active)

Structure (SMILES): COc1cc(C(=O)Nc2ccc(S(=O)(=O)N3CCc4ccccc43)cc2)cc(OC)c1OC
- EC50 [6]: > 260 µM (inactive)

Structure (SMILES): CN(C)S(=O)(=O)c1ccc(Cl)c(NC(=O)CN2CCCCCC2)c1
- EC50 [8]: > 120 µM (not active)
- EC50 [9]: > 120 µM (not active)
- EC50 [10]: > 120 µM (not active)

Structure (SMILES): Brc1ccc2c(c1)C(c1cccnc1)=NNC(c1cccs1)=N2
- EC50 [6]: 93.6 µM (active)

Structure (SMILES): Nc1ccc(Sc2cc(Cl)nc(N)n2)cc1
- EC50 [8]: > 120 µM (not active)
- EC50 [9]: > 120 µM (not active)
- EC50 [10]: 99.5 µM (active)
